Key:
Assay in all cases: relative viability (nuclei count vs DMSO), 5 days (fraction); higher = more cells survive
Dasatinib + Lapatinib = compound: Cc1nc(Nc2ncc(C(=O)Nc3c(C)cccc3Cl)s2)cc(N2CCN(CCO)CC2)n1 [Dasatinib] + CS(=O)(=O)CCNCc1ccc(-c2ccc3ncnc(Nc4ccc(OCc5cccc(F)c5)c(Cl)c4)c3c2)o1 [Lapatinib] (partner 2 µM)
How it was run: (§1)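 Relative viability was taken as the ratio of nuclei in treated wells to nuclei in vehicle wells. Lung cancer cell lines in 1536-well plates received compounds by pin tool one day after seeding, either one drug alone or a fixed anchor-drug dose plus five library-drug doses (not always all listed) in √10 steps. Nuclei were counted on 4× images after 5 days of treatment, and values are medians of duplicate plates.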

ALW-II-49-7 + Pemetrexed = compound: Cc1ccc(C(=O)Nc2cccc(C(F)(F)F)c2)cc1Nc1cncc(C(N)=O)c1 [ALW-II-49-7] + Nc1nc2[nH]cc(CCc3ccc(C(=O)N[C@@H](CCC(=O)O)C(=O)O)cc3)c2c(=O)[nH]1 [Pemetrexed] (partner 0.2 µM)
How it was run: as §1

Dasatinib + Pemetrexed = compound: Cc1nc(Nc2ncc(C(=O)Nc3c(C)cccc3Cl)s2)cc(N2CCN(CCO)CC2)n1 [Dasatinib] + Nc1nc2[nH]cc(CCc3ccc(C(=O)N[C@@H](CCC(=O)O)C(=O)O)cc3)c2c(=O)[nH]1 [Pemetrexed] (partner 0.2 µM)
How it was run: as §1

XMD13-2 + Lapatinib = compound: C1CC1C(=O)NC2=NNC3=C2C=CC(=C3)C4=CC(=CC=C4)C(=O)NC5CC5 [XMD13-2] + CS(=O)(=O)CCNCc1ccc(-c2ccc3ncnc(Nc4ccc(OCc5cccc(F)c5)c(Cl)c4)c3c2)o1 [Lapatinib] (partner 2 µM)
How it was run: as §1

Row | Cell Line | relative viability (Dasatinib + Lapatinib; first compound 0.005 µM) | relative viability (Dasatinib + Lapatinib; first compound 0.01581 µM) | relative viability (Dasatinib + Lapatinib; first compound 0.05 µM) | relative viability (Dasatinib + Lapatinib; first compound 0.1581 µM) | relative viability (Dasatinib + Lapatinib; first compound 0.5 µM) | relative viability (ALW-II-49-7 + Pemetrexed; first compound 0.08 µM) | relative viability (ALW-II-49-7 + Pemetrexed; first compound 0.253 µM) | relative viability (ALW-II-49-7 + Pemetrexed; first compound 0.8 µM) | relative viability (ALW-II-49-7 + Pemetrexed; first compound 8 µM) | relative viability (Dasatinib + Pemetrexed; first compound 0.005 µM) | relative viability (Dasatinib + Pemetrexed; first compound 0.01581 µM) | relative viability (Dasatinib + Pemetrexed; first compound 0.05 µM) | relative viability (Dasatinib + Pemetrexed; first compound 0.1581 µM) | relative viability (Dasatinib + Pemetrexed; first compound 0.5 µM) | relative viability (XMD13-2 + Lapatinib; first compound 0.05 µM) | relative viability (XMD13-2 + Lapatinib; first compound 0.1581 µM) | relative viability (XMD13-2 + Lapatinib; first compound 0.5 µM) | relative viability (XMD13-2 + Lapatinib; first compound 1.581 µM) | relative viability (XMD13-2 + Lapatinib; first compound 5 µM) | relative viability (ALW-II-49-7 + Pemetrexed; first compound 2.53 µM)
1 | LOU-NH91 | 0.673 | 0.592 | 0.571 | 0.503 | 0.414 | 0.298 | 0.361 | 0.35 | 0.338 | 0.414 | 0.389 | 0.407 | 0.377 | 0.319 | 0.809 | 0.758 | 0.725 | 0.713 | 0.746 | –
2 | LU99A | 0.954 | 0.838 | 0.914 | 0.628 | 0.489 | – | 0.19 | 0.163 | 0.184 | 0.191 | 0.158 | 0.192 | 0.176 | 0.16 | 1.21 | 0.975 | 1.02 | 0.858 | 0.42 | 0.172
3 | LXF-289 | 0.941 | 1.01 | 0.971 | 0.604 | 0.223 | 0.822 | 0.869 | 0.958 | 0.959 | 0.918 | 0.987 | 1.13 | 0.687 | 0.205 | 0.923 | 0.901 | 0.905 | 0.897 | 0.834 | 1.05
4 | NCI-H23 | 1.01 | 1.09 | 0.911 | 0.539 | 0.764 | 0.59 | 0.672 | 0.752 | 0.511 | 0.549 | 0.528 | 0.59 | 0.402 | 0.384 | 1.33 | 0.964 | 0.996 | 1.09 | 1.27 | 0.783
5 | NCI-H441 | – | – | – | – | – | 0.27 | 0.25 | 0.26 | 0.211 | 0.305 | 0.259 | 0.286 | 0.225 | 0.27 | – | – | – | – | – | 0.234
6 | NCI-H522 | – | – | – | – | – | 0.909 | 0.874 | 0.958 | 1.01 | 1.04 | 1.03 | 0.914 | 0.706 | 0.681 | – | – | – | – | – | 1.07
7 | NCI-H727 | 0.588 | 0.667 | 0.581 | 0.37 | 0.277 | – | – | – | – | – | – | – | – | – | 0.836 | 0.844 | 1.06 | 1.01 | 0.949 | –
8 | NCI-H1299 | 0.971 | 0.971 | 1.1 | 0.529 | 0.299 | – | – | – | – | – | – | – | – | – | 0.908 | 1.03 | 0.997 | 0.958 | 0.939 | –
9 | NCI-H1648 | – | – | – | – | – | 0.579 | 0.934 | 0.802 | 0.738 | 0.454 | 0.716 | 0.936 | 0.699 | 0.239 | – | – | – | – | – | 0.52
10 | NCI-H1703 | 0.638 | 0.326 | 0.429 | 0.185 | 0.16 | – | – | – | – | – | – | – | – | – | 1.38 | 1.4 | 1.17 | 0.842 | 0.72 | –
11 | NCI-H2342 | – | – | – | – | – | 0.681 | 0.856 | 0.771 | 0.744 | 0.742 | 0.705 | 0.676 | 0.514 | 0.285 | – | – | – | – | – | 0.791
12 | SW 900 | – | – | – | – | – | 0.449 | 0.492 | – | 0.316 | 0.47 | 0.348 | 0.43 | 0.186 | 0.203 | – | – | – | – | – | 0.517

Source: the supplement of paper PMC10307832
